Source: US20260256741A1, “ANTICANCER MALEIMIDE DERIVATIVES FOR USE WITH IMMUNE CHECKPOINT BLOCKADE” (BROWN UNIVERSITY, priority 2022, published 2026)

Tests used:
[1] = Tolerability in the CT-26 BALB/c model (body weight, blood count, serum chemistry); set-up: species or system BALB/c mice; details: mouse, in vivo
Method: The experimental in vivo protocol (Protocol #19-01-003) was approved by the Institutional Animal Care and Use Committee of Brown University (Providence, RI, USA). Six to 7 weeks-old female BALB/c mice (RRID: IMSR_JAX:000651) were purchased from Taconic. 50,000 cells were suspended in 50 μL ice-cold PBS and 50 μL Matrigel (Catalog # 354234, Corning, New York, USA), and 100 uL was injected subcutaneously into the rear flanks. Once tumor volume reached at least 100 mm^3, mice were randomly assigned to one of seven groups (3 mice/group): Control (isotype), elraglusib, elraglusib+Isotype, anti-PD-1, anti-PD-L1, elraglusib+anti-PD-1, and elraglusib+anti-PD-L1. All treatments were delivered by IP injection on the following dosing schedule: Isotype (70 mg/kg, twice a week), elraglusib (70 mg/kg, twice a week), anti-PD-1 (10 mg/kg, twice a week), anti-PD-L1 (10 mg/kg, twice a week). The treatment continued until mice developed signs of discomfort from excessive tumor growth. Mice were weighed once a week to monitor signs of drug toxicity. The length (L) and width (W) of the masses were measured three times per week with a digital caliper, and the tumor volume was calculated by applying the formula: 0.5LW2. Collection of whole blood and serum was performed by cardiac puncture and sent to Antech GLP for blood cell count and chemistry tests, or in-house cytokine profiling. […]

[2] = tested on: CD45+ immune cell segments of tumor biopsies; experiment: GeoMx Digital Spatial Profiling of patient tumor biopsies; type: in vivo, human; details: post- vs pre-treatment
Source text: An Agilent technologies hybridization oven was used for baking tissue onto slides (Agilent, Santa Clara, CA, USA). A NanoString GeoMx® Digital Spatial Profiler (DSP) instrument (NanoString, Seattle, WA, USA) was used to scan slides, identify regions of interest (ROIs), and collect photocleavable barcodes according to manufacturer instructions. A custom panel was designed to include the following proteins: Ms IgG1, Ms IgG2a, Rb IgG, GAPDH, Histone H3, S6, Beta-2-microglobulin, CD31, CD45, Ki-67, ARG1, CD11b, CD11c, CD14, CD163, CD39, CD40, CD68, HLA-DR, GZMB, CD20, CD3, CD34, CD4, CD56, CD66b, CD8, Foxp3, Fibronectin, 4-1BB, B7-H3, CTLA4, GITR, IDO1, LAG3, OX40L, STING, Tim-3, VISTA, Bcl-2, ER-α, EpCAM, Her2, MART1, NY-ESO-1, PR, PTEN, PanCk, SMA, CD127, CD25, CD27, CD44, CD45RO, CD80, ICOS, PD-1, PD-L1, and PD-L2. An Eppendorf MasterCycler Gradient Thermal Cycler was used to generate the Illumina sequencing libraries from the photocleaved tags. (Eppendorf, Hamburg, Germany). An Agilent Fragment Analyzer (RRID: SCR_019417) was used for library size distribution analysis with a high-sensitivity NGS Fragment Kit (Cat #DNF-474-0500, Agilent, Santa Clara, CA, USA). qPCR for quantification was run using an Illumina-compatible KAPA Library Quantification Kits (ROX Low) (cat #KK4873) on an Applied Biosystems ViiA 7 Real-Time qPCR/PCR Thermal Cycler System (Applied Biosystems, San Francisco, CA, USA) and was analyzed using QuantStudio software (RRID: SCR_018712). Sequencing was performed using a NextSeq 500/550 High Output Kit v2.5 (75 Cycles) kit (cat #20024906) on an Illumina Sequencing NextSeq 550 System ([RRID: SCR_016381], Illumina, San Diego, CA, USA). The initial annotated dataset went through quality control (QC) to check if housekeeper genes and background (isotype) control molecules were themselves correlated with the predictors of interest. Every ROT was tested for raw sequencing reads (segments with <1000 raw reads were removed), % sequencing saturation (defined as [1-deduplicated reads/aligned reads]%, segments below ~50% were not analyzed), and nuclei count per segment (>100 nuclei per segment is generally recommended). Both immunoglobulins (IgGs) and housekeeper genes were highly correlated with one another. Signal to noise (SNR) ratio was calculated using background probes and all probes were detected above the background in at least one ROI. Finally, data were normalized based on background IgG expression and all normalization factors were well distributed. Data analysis and visualization were generated using R ([RRID: SCR_001905], R Development Core Team, 2020). Archival tumor specimens and peripheral blood samples were collected from patients enrolled in the Phase I study of Elraglusib (9-ING-41), a small molecule selective glycogen synthase kinase-3 beta (GSK-3b) inhibitor, as monotherapy or combined with cytotoxic regimens in patients with relapsed or refractory hematologic malignancies or solid tumors (Clinicaltrials.gov NCT03678883) who received treatment at the Lifespan Cancer Institute (Providence, RI, USA). The study was conducted in accordance with the Declaration of Helsinki and the International Conference on Harmonization Good Clinical Practice guidelines. The study protocol was approved by the Institutional Review Board (IRB) of Rhode Island Hospital under protocol number 1324888-120. The patients also participated in a Lifespan Cancer Institute research protocol designed to investigate molecular and genetic features of tumors and mechanisms of resistance (Rhode Island Hospital IRB protocol number 449060-38). All patients provided written informed consent.

[3] = tumor-infiltrating CD45+ segments, p=0.012
[4] = tumor-infiltrating CD45+ segments, p=1.6E-3
[5] = tumor-infiltrating CD45+ segments, p=3.1E-5

Cn1cc(C2=C(c3coc4ccc(F)cc34)C(=O)NC2=O)c2cc3c(cc21)OCO3 [elraglusib, 3-(5-fluorobenzofuran-3-yl)-4-(5-methyl-5H-[1,3]dioxolo[4,5-f]indol-7-yl)-1H-pyrrole-2,5-dione]
renal function (BUN, creatinine, electrolytes) [1]: maintained normal renal function
CD40 protein expression ([2]; CD45+ regions, all samples, p=0.020): decreased protein expression
CD11c protein expression ([2]; CD45+ regions, all samples, p=0.022): decreased protein expression
PD-L2 protein expression ([2]; CD45+ regions, all samples, p=2.0E-9): decreased protein expression
VISTA protein expression ([2]; CD45+ regions, all samples, p=2.0E-24): decreased protein expression
PD-L1 protein expression ([2]; CD45+ regions, all samples, p=3.2E-13): decreased protein expression
CD68 protein expression ([2]; CD45+ regions, all samples, p=3.8E-4): decreased protein expression
IDO1 protein expression ([2]; CD45+ regions, all samples, p=4.8E-6): decreased protein expression
LAG3 protein expression ([2]; CD45+ regions, all samples, p=5.1E-4): decreased protein expression
CD80 protein expression ([2]; CD45+ regions, all samples, p=5.4E-6): decreased protein expression
PD-1 protein expression ([2]; CD45+ regions, all samples, p=5.6E-9): decreased protein expression
CD11b protein expression ([2]; CD45+ regions, all samples, p=6.7E-3): decreased protein expression
CD66b protein expression ([2]; CD45+ regions, all samples, p=7.5E-15): decreased protein expression
B7-H3 protein expression [2, 3]: higher protein expression
CD127 protein expression [2, 3]: higher protein expression
GITR protein expression ([2]; tumor-infiltrating CD45+ segments, p=0.021): lower protein expression
CD45RO protein expression ([2]; tumor-infiltrating CD45+ segments, p=1.1E-4): lower protein expression
PD-L1 protein expression ([2]; tumor-infiltrating CD45+ segments, p=1.1E-6): lower protein expression
CD66b protein expression ([2]; tumor-infiltrating CD45+ segments, p=1.4E-13): lower protein expression
PTEN protein expression ([2]; tumor-infiltrating CD45+ segments, p=1.5E-11): lower protein expression
OX40L protein expression [2, 4]: higher protein expression
PD-1 protein expression [2, 4]: lower protein expression
VISTA protein expression ([2]; tumor-infiltrating CD45+ segments, p=1.6E-14): lower protein expression
CD80 protein expression ([2]; tumor-infiltrating CD45+ segments, p=2.4E-3): lower protein expression
B2M protein expression ([2]; tumor-infiltrating CD45+ segments, p=2.5E-6): lower protein expression
Ki-67 protein expression ([2]; tumor-infiltrating CD45+ segments, p=2.7E-4): lower protein expression
CTLA4 protein expression [2, 5]: higher protein expression
HLA-DR protein expression [2, 5]: lower protein expression
CD44 protein expression ([2]; tumor-infiltrating CD45+ segments, p=3.1E-7): lower protein expression
CD34 protein expression ([2]; tumor-infiltrating CD45+ segments, p=3.3E-9): lower protein expression
CD68 protein expression ([2]; tumor-infiltrating CD45+ segments, p=5.8E-4): lower protein expression
IDO1 protein expression ([2]; tumor-infiltrating CD45+ segments, p=6.6E-4): lower protein expression
CD56 protein expression ([2]; tumor-infiltrating CD45+ segments, p=6.9E-3): lower protein expression
PD-L2 protein expression ([2]; tumor-infiltrating CD45+ segments, p=7.6E-4): lower protein expression
ARG1 protein expression ([2]; tumor-infiltrating CD45+ segments, p=7.6E-5): lower protein expression
CD11c protein expression ([2]; tumor-infiltrating CD45+ segments, p=9.5E-3): lower protein expression
